Assay results published in ChEMBL document CHEMBL1795204 (2011).
Active and inactive are the calls of the source. The rule behind the calls is not given here.

What was measured:
Format in all cases: functional
Haemonchus contortus [1] = assay: Anthelmintic activity against Haemonchus contortus McMaster by larvel development assay
[2] = test system: Trichostrongylus colubriformis; assay: Anthelmintic activity against Trichostrongylus colubriformis McMaster
Haemonchus contortus [3] = assay: Anthelmintic activity against benzimidazole and Levamisole-resistant Haemonchus contortus Lawes
Haemonchus contortus [4] = assay: Anthelmintic activity against Ivermectin-resistant Haemonchus contortus CAVR
Haemonchus contortus [5] = assay: Anthelmintic activity against benzimidazole-resistant Haemonchus contortus VRSG
[6] = test system: Teladorsagia circumcincta; assay: Anthelmintic activity against Ostertagia circumcincta

Row | Compound | LD99 (Haemonchus contortus [1]) | other results
1 | CCCSc1ccc2nc(-c3ccc(OCCOC)c(OC)c3)cn2n1 | 2.17 µM | –
2 | CCCSc1ccc2nc(-c3ccc(OCCOC)c(OC)c3)c(Br)n2n1 | 1.66 µM | –
3 | CCCCc1ccc2nc(-c3ccc(OCCOC)cc3)cn2n1 | 1.92 µM | –
4 | CCCOc1ccc2nc(-c3ccc(OCCOCC)cc3)cn2n1 | 0.32 µM | –
5 | Clc1ccc(-c2cn3nc(OCC4CC4)ccc3n2)c(Cl)c1 | inactive | –
6 | CCCOc1nn2cc(-c3ccc(OCCOC)c(OC)c3)nc2cc1C | 0.32 µM | –
7 | CCCOc1ccc2nc(-c3ccc(OCCOC)cc3)c(I)n2n1 | 0.03 µM | –
8 | CCc1ccc(-c2cn3nc(OCC4CC4)ccc3n2)cc1 | 0.27 µM | –
9 | CCCOc1ccc2nc(-c3ccc(OCCOC)c(OC)c3)c(C#N)n2n1 | inactive | –
10 | CCCCSc1ccc2nc(-c3ccc(C(F)(F)F)cc3)cn2n1 | inactive | –
11 | CCCOc1ccc2nc(-c3ccc(OCCOC)cc3)c(C#N)n2n1 | 0.11 µM | –
12 | COCCOc1ccc(-c2cn3nc(OCCOC)ccc3n2)cc1 | 17.47 µM | –
13 | COCCOc1cccc(-c2nc3ccc(OC(C)C)nn3c2C)c1 | 14.65 µM | –
14 | CCCSc1ccc2nc(-c3ccc(OCCOC)cc3)cn2n1 | 2.36 µM | –
15 | CCCOc1ccc2nc(-c3cccc(OC)c3)cn2n1 | 0.81 µM | –
16 | CCCSc1ccc2nc(-c3ccc(OCC)cc3)cn2n1 | 1.21 µM | –
17 | COCCOc1ccc(-c2nc3ccc(OCc4ccccc4)nn3c2Cl)cc1 | inactive | –
18 | CCCOc1ccc2nc(-c3ccc(OC)c(OC)c3)cn2n1 | 4.15 µM | –
19 | CCCCOc1ccc2nc(-c3ccc(OCCOC)cc3)cn2n1 | 0.64 µM | –

Row | Compound | LD99 (Haemonchus contortus [1]) | other results
20 | COCCOc1ccc(-c2cn3nc(OCC4CC4)ccc3n2)cc1 | 0.11 µM | –
21 | CCCOc1nn2cc(-c3ccc(OCCOC)cc3)nc2c2ccccc12 | 0.91 µM | –
22 | COCCOc1cccc(-c2nc3ccc(SC(C)C)nn3c2C)c1 | 19.58 µM | –
23 | CCCCSc1ccc2nc(-c3ccc(OCCOC)cc3)cn2n1 | 0.26 µM | –
24 | CCCOc1ccc2nc(-c3ccc(OCCOC)cc3)c(Cl)n2n1 | 0.06 µM | –
25 | CCCCN(C)c1ccc2nc(-c3ccc(OCCOC)cc3)cn2n1 | 2.29 µM | –
26 | CCOc1ccc2nc(-c3ccc(OCCOC)cc3)cn2n1 | 1.3 µM | –
27 | CCCOc1ccc2nc(-c3ccc(OCCOC)cc3)c(C)n2n1 | 0.32 µM | –
28 | COCCOc1ccc(-c2cn3nc(-c4ccsc4)ccc3n2)cc1 | 1.96 µM | –
29 | CCCOc1ccc2nc(-c3ccc(OCCOC)c(OC)c3)cn2n1 | 2.27 µM | –
30 | CCCOc1ccc2nc(-c3ccc4c(c3)OCO4)cn2n1 | 0.77 µM | LD99 [2]: 0.67 µM; LD99 (Haemonchus contortus [3]): 0.67 µM; LD99 (Haemonchus contortus [4]): 1.85 µM; LD99 (Haemonchus contortus [5]): 0.94 µM; LD99 [6]: 0.33 µM
31 | CCCSc1ccc2nc(-c3ccc(Cl)cc3Cl)cn2n1 | inactive | –
32 | c1ccc([C@H]2CN3CCSC3=N2)cc1 [LEVAMISOLE] | 0.66 µM | –
33 | CCCOc1ccc2nc(-c3cccc(OCCOC)c3)c(C)n2n1 | 5.49 µM | –
34 | COCCOc1ccc(-c2nc3ccc(OCC4CC4)nn3c2Br)cc1 | 0.1 µM | –
35 | CCCOc1ccc2nc(-c3ccc(OCCOC)cc3)c(Br)n2n1 | 0.03 µM | –
36 | COCCOc1ccc(-c2cn3nc(OC(C)C)ccc3n2)cc1 | 4.96 µM | –
37 | COCCOc1ccc(-c2cn3nc(N4CCCC4)ccc3n2)cc1 | 9.6 µM | –
38 | FC(F)(F)c1ccc(-c2cn3nc(OCC4CC4)ccc3n2)cc1 | inactive | –

Row | Compound | LD99 (Haemonchus contortus [1]) | other results
39 | CCCOc1ccc2nc(-c3ccc(OCCOC)cc3)cn2n1 | 0.29 µM | –
40 | COCCOc1ccc(-c2cn3ncccc3n2)cc1 | inactive | –
41 | CCCSc1ccc2nc(-c3cccc(OC)c3)cn2n1 | 2.1 µM | –
42 | CCCOc1ccc2nc(-c3ccc(OCCOC)c(OC)c3)c(I)n2n1 | 10.35 µM | –
43 | CCOCCOc1ccc(-c2cn3nc(OCC4CC4)ccc3n2)cc1 | 0.11 µM | –
44 | IVERMECTIN | 0.006 µM | –
45 | CCCNc1ccc2nc(-c3ccc(OCCOC)cc3)cn2n1 | 2.11 µM | –
46 | COCCOc1ccc(-c2cn3nc(OC4CCCC4)ccc3n2)cc1 | 5.31 µM | –
47 | CCCOc1ccc2nc(-c3ccc(Cl)cc3)cn2n1 | 13.03 µM | –
48 | COCCOc1ccc(-c2cn3nc(SC(C)C)ccc3n2)cc1 | 0.59 µM | –
49 | CCCCSc1ccc2nc(-c3ccc(OCCOCC)cc3)cn2n1 | 0.59 µM | –
50 | CCCOc1ccc2nc(-c3ccc4c(c3)OCCO4)cn2n1 | 2.6 µM | –
51 | CCCOc1nn2cc(-c3ccc(OCC)cc3)nc2cc1C | 0.6 µM | –
52 | CCOc1ccc(-c2cn3nc(OCC4CC4)ccc3n2)cc1 | 0.09 µM | –
53 | CCCOc1nn2cc(-c3ccc(OCC)cc3)nc2c2ccccc12 | 1.8 µM | –
54 | CCCOc1ccc2nc(-c3ccccc3)cn2n1 | inactive | –
55 | COCCOc1ccc(-c2cn3nc(-c4ccccc4)ccc3n2)cc1 | 8.11 µM | –
56 | CCCOc1ccc2nc(-c3ccc(OCCOC)cc3)c(-c3ccccc3)n2n1 | 9.29 µM | –
57 | CCOCCOc1ccc(-c2cn3nc(SCC(C)C)ccc3n2)cc1 | 0.87 µM | –
